Assay results published in patent US20190125869A1, “PULSED ELECTROMAGNETIC THERAPY FOR DIRECTING AGENTS TO CANCER CELLS” (MMTC, Inc., priority 2017, published 2019).

System: AT2 prostatic tumor of rats
Assay: Growth of implanted tumors after intravenous Taxol, with or without pulsed microwaves
Assay type: in vivo, Copenhagen rats
Experimental: Treatment times were 30 minutes.
One rat with four implanted tumors, two in each flank, was used. Taxol was injected intravenously at 5 mg/kg. The two lower (right and left) tumors were treated as described above with pulsed microwaves, beginning immediately after the injection. Tumor growth was monitored over 14 days.

With `CC(=O)O[C@H]1C(=O)[C@@]2(C)[C@H]([C@H](OC(=O)c3ccccc3)[C@]3(O)C[C@H](OC(=O)[C@H](O)[C@@H](NC(=O)c4ccccc4)c4ccccc4)C(C)=C1C3(C)C)[C@]1(OC(C)=O)CO[C@@H]1C[C@@H]2O` [Taxol] the tumor size (Taxol 5 mg/kg intravenously plus pulsed microwaves (two treated tumors), after 14 days) was “barely detectable”, the tumor size (Taxol 5 mg/kg intravenously plus pulsed microwaves (two treated tumors), at 5 days) was “almost disappeared” and the tumor growth (Taxol 5 mg/kg intravenously, non-pulsed control tumors in the same rat, after 14 days) was “continued to grow”. For the same compound, the tumor size (Taxol 5 mg/kg intravenously, non-pulsed control tumors in the same rat, at 5 days) was “remained large” and the remission of tumors (microwave pulsing combined with systemically administered Taxol, pilot study summary) was “remission of tumors could be obtained”.
